Measurements taken from patent US6461997B1, “Triazole sulfones having herbicidal activity” (Monsanto Technology LLC, priority 1999, dated 2002).

Key:
[1] = tested on: LAMPU (purple deadnettle); test: Pre-emergence herbicidal activity, cool season; format: in vivo, Lamium purpureum; conditions: lowest tested rate with 80% or greater inhibition; rates 300, 100, 30, 10 g/ha; about 14 days
Experimental: (§1) Tables 5 to 8 summarize results of tests conducted as described below to determine the pre-emergence herbicidal activity, in the form of a GR80 value, of illustrative compounds of this invention. […] Compounds of the invention were typically applied at rates of 300, 100, 30, and 10 g/ha. Where herbicidal activity was evident but 80% inhibition was not achieved at the highest rate tested, an asterisk (*) is shown in the following tables.
(§2) The pre-emergence tests were conducted by the following procedure. Topsoil was sieved to pass through a 1.27 cm screen. Fertilizer was added to the topsoil and the mixture was then sterilized by heating. The topsoil mixture was placed in a pot and compacted to a depth of 1.0 to 1.25 cm from the top of the pot. Seeds of each of several monocotyledonous and dicotyledonous annual plant species were placed on top of the soil. Additional soil was subsequently placed over the seeds to level-fill the pot. A known amount of each test compound dissolved or suspended in an appropriate organic solvent was diluted with a 50:50 mix of acetone and water and applied to the surface of the soil. After treatment the plants were placed in a greenhouse where they received 0.64 cm of overhead irrigation. All subsequent watering consisted of a light overhead mist and/or subirrigation as needed for germination and growth. Tables 5 and 6 below relate to warm season plant species which were placed after pre-emergence treatment in a greenhouse with a 30/21° C. day/night temperature regime. Tables 7 and 8 below relates to cool season plant species placed after pre-emergence treatment in a greenhouse or growth chamber with an 18/13° C. day/night temperature regime.
(§3) Approximately 14 days after planting and treating, the plants were observed and herbicidal efficacy recorded as percent inhibition by comparison with untreated plants.
(§4) The plant species usually regarded as weeds which were utilized in the tests are identified in the tables below according to the following legend, in which “d” indicates a dicotyledonous species and “m” a monocotyledonous species. All monocotyledonous species included in the tests herein are grasses.

SETVI (green foxtail) = test: Pre-emergence herbicidal activity, cool season; format: in vivo, Setaria viridis; conditions: GR80 = lowest tested rate (300, 100, 30, 10 g/ha) with 80% or greater inhibition; approx. 14 days after treating; 18/13° C.
Experimental: as §1, §2, §3, §4

SINAR (wild mustard) = test: Pre-emergence herbicidal activity, cool season; format: in vivo, Sinapis arvensis; conditions: lowest tested rate with 80% or greater inhibition; rates 300, 100, 30, 10 g/ha; about 14 days
Experimental: as §1, §2, §3, §4

STEME (common chickweed) = test: Pre-emergence herbicidal activity, cool season; format: in vivo, Stellaria media; conditions: lowest tested rate with 80% or greater inhibition; rates 300, 100, 30, 10 g/ha; about 14 days
Experimental: as §1, §2, §3, §4

[2] = tested on: VERPE (creeping speedwell); test: Pre-emergence herbicidal activity, cool season; format: in vivo, Veronica persicaria; conditions: lowest tested rate with 80% or greater inhibition; rates 300, 100, 30, 10 g/ha; about 14 days
Experimental: as §1, §2, §3, §4

SASKR (russian thistle) = test: Pre-emergence herbicidal activity, cool season; format: in vivo, Salsola kali; conditions: lowest tested rate with 80% or greater inhibition; rates 300, 100, 30, 10 g/ha; about 14 days
Experimental: as §1, §2, §3, §4

[3] = tested on: AGSST (creeping bentgrass); test: Pre-emergence herbicidal activity, cool season; format: in vivo, Agrostis stolonifera; conditions: GR80 = lowest tested rate (300, 100, 30, 10 g/ha) with 80% or greater inhibition; approx. 14 days after treating; 18/13° C.
Experimental: as §1, §2, §3, §4

[4] = tested on: PANMI (wild proso millet); test: Pre-emergence herbicidal activity, warm season; format: in vivo, Panicum miliaceum; conditions: GR80 = lowest tested rate (300, 100, 30, 10 g/ha) with 80% or greater inhibition; approx. 14 days after treating; 30/21° C.
Experimental: as §1, §2, §3, §4

POLCO (wild buckwheat) = test: Pre-emergence herbicidal activity, cool season; format: in vivo, Polygonum convolvulus; conditions: lowest tested rate with 80% or greater inhibition; rates 300, 100, 30, 10 g/ha; about 14 days
Experimental: as §1, §2, §3, §4

[5] = tested on: GALAP (catchweed bedstraw); test: Pre-emergence herbicidal activity, cool season; format: in vivo, Galium aparine; conditions: lowest tested rate with 80% or greater inhibition; rates 300, 100, 30, 10 g/ha; about 14 days
Experimental: as §1, §2, §3, §4

ALOMY (blackgrass) = test: Pre-emergence herbicidal activity, cool season; format: in vivo, Alopecurus myosuroides; conditions: GR80 = lowest tested rate (300, 100, 30, 10 g/ha) with 80% or greater inhibition; approx. 14 days after treating; 18/13° C.
Experimental: as §1, §2, §3, §4

[6] = tested on: CHEAL (common lambsquarters); test: Pre-emergence herbicidal activity, warm season; format: in vivo, Chenopodium album; conditions: GR80 = lowest tested rate (300, 100, 30, 10 g/ha) with 80% or greater inhibition; approx. 14 days after treating; 30/21° C.
Experimental: as §1, §2, §3, §4

SOLNI (black nightshade) = test: Pre-emergence herbicidal activity, warm season; format: in vivo, Solanum nigrum; conditions: GR80 = lowest tested rate (300, 100, 30, 10 g/ha) with 80% or greater inhibition; approx. 14 days after treating; 30/21° C.
Experimental: as §1, §2, §3, §4

SETFA (giant foxtail) = test: Pre-emergence herbicidal activity, warm season; format: in vivo, Setaria faberi; conditions: GR80 = lowest tested rate (300, 100, 30, 10 g/ha) with 80% or greater inhibition; approx. 14 days after treating; 30/21° C.
Experimental: as §1, §2, §3, §4

[7] = tested on: SORHA (johnsongrass (seedling)); test: Pre-emergence herbicidal activity, warm season; format: in vivo, Sorghum halepense; conditions: GR80 = lowest tested rate (300, 100, 30, 10 g/ha) with 80% or greater inhibition; approx. 14 days after treating; 30/21° C.
Experimental: as §1, §2, §3, §4

ECHCG (barnyardgrass) = test: Pre-emergence herbicidal activity, warm season; format: in vivo, Echinochloa crus-galli; conditions: GR80 = lowest tested rate (300, 100, 30, 10 g/ha) with 80% or greater inhibition; approx. 14 days after treating; 30/21° C.
Experimental: as §1, §2, §3, §4

| SMILES | Pre-emergence activity GR80, LAMPU [1] | Pre-emergence activity (GR80) SETVI (SETVI (green foxtail)) [g/ha] | Pre-emergence activity GR80, SINAR (SINAR (wild mustard)) | Pre-emergence activity GR80, STEME (STEME (common chickweed)) | Pre-emergence activity GR80, VERPE [2] | Pre-emergence activity GR80, SASKR (SASKR (russian thistle)) | Pre-emergence activity (GR80) AGSST [3] [g/ha] | Pre-emergence activity (GR80) PANMI [4] [g/ha] | Pre-emergence activity GR80, POLCO (POLCO (wild buckwheat)) | Pre-emergence activity GR80, GALAP [5] | Pre-emergence activity (GR80) ALOMY (ALOMY (blackgrass)) [g/ha] | Pre-emergence activity (GR80) CHEAL [6] [g/ha] | Pre-emergence activity (GR80) SOLNI (SOLNI (black nightshade)) [g/ha] | Pre-emergence activity (GR80) SETFA (SETFA (giant foxtail)) [g/ha] | Pre-emergence activity (GR80) SORHA [7] [g/ha] | Pre-emergence activity (GR80) ECHCG (ECHCG (barnyardgrass)) [g/ha] |
| --- | --- | --- | --- | --- | --- | --- | --- | --- | --- | --- | --- | --- | --- | --- | --- | --- |
| C=CCN(C)C(=O)n1cnc(S(=O)(=O)C(F)(F)SCC)n1 [Example 53] | [empty] | 300 | [empty] | [empty] | [empty] | [empty] | 300 | 300 | [empty] | 300 g/ha | – | – | – | – | – | – |
| C=CCN(C)C(=O)n1cnc(S(=O)(=O)C(F)(F)C(F)F)n1 [Example 65] | 100 g/ha | 100 | 300 g/ha | 300 g/ha | 100 g/ha | [empty] | 300 | 300 | 100 g/ha | 30 g/ha | 100 | 300 | – | – | – | – |
| CN(Cc1ccccc1)C(=O)n1cnc(S(=O)(=O)C(F)(F)C(F)F)n1 [Example 68] | [empty] | 300 | 300 g/ha | [empty] | [empty] | [empty] | – | 300 | 300 g/ha | 300 g/ha | – | – | 300 | 300 | – | – |
| CN(C)C(=O)n1cnc(S(=O)(=O)C(F)(F)C(F)(F)Br)n1 [Example 73] | 300 g/ha | 300 | 100 g/ha | 300 g/ha | 100 g/ha | 100 g/ha | 100 | 100 | [empty] | 100 g/ha | – | – | – | – | 300 | 300 |
| C#CCN(C)C(=O)n1cnc(S(=O)(=O)C(F)(F)C(F)(F)Br)n1 [Example 78] | 100 g/ha | – | 30 g/ha | [empty] | 30 g/ha | 100 g/ha | – | – | [empty] | [empty] | – | – | 300 | – | – | – |
| CN(C(=O)n1cnc(S(=O)(=O)C(F)(F)C(F)(F)Br)n1)C1CCCCC1 [Example 79] | 100 g/ha | 300 | 300 g/ha | 100 g/ha | 30 g/ha | [empty] | 100 | 300 | 300 g/ha | 300 g/ha | – | – | – | – | – | 300 |
